# Assay results from US8906904B2, “Alkoxy pyrazoles as soluble guanylate cyclase activators” (Boehringer Ingelheim International GmbH, priority 2012, dated 2014).
# Molecular target: T1, human soluble guanylate cyclase alpha 1 and beta 1 subunits (sGC) (Homo sapiens, UniProt Q02108+Q02153)
# T1 construct: expressed in transfected cells; host or cells: Chinese hamster ovary (CHO) cells, stably transfected
# T1 sequence (Q02108 1-690): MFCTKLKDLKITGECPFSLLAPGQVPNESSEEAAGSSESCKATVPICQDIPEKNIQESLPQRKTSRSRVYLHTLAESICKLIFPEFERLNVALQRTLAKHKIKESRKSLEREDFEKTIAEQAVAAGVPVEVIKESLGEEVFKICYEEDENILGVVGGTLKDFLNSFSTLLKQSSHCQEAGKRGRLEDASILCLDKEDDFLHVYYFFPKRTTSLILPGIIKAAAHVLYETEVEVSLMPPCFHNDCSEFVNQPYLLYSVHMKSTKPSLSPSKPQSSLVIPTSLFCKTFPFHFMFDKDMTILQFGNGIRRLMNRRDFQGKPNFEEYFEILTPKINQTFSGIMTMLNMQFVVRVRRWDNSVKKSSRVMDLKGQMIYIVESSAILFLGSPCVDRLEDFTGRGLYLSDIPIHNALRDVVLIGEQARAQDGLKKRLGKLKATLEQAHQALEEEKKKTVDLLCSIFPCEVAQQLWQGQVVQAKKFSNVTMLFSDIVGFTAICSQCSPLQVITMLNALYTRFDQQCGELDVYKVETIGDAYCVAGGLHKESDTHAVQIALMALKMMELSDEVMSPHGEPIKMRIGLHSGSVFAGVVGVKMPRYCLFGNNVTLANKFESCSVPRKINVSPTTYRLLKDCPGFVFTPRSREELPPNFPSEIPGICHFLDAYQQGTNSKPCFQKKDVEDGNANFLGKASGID
# T1 sequence (Q02153 1-619): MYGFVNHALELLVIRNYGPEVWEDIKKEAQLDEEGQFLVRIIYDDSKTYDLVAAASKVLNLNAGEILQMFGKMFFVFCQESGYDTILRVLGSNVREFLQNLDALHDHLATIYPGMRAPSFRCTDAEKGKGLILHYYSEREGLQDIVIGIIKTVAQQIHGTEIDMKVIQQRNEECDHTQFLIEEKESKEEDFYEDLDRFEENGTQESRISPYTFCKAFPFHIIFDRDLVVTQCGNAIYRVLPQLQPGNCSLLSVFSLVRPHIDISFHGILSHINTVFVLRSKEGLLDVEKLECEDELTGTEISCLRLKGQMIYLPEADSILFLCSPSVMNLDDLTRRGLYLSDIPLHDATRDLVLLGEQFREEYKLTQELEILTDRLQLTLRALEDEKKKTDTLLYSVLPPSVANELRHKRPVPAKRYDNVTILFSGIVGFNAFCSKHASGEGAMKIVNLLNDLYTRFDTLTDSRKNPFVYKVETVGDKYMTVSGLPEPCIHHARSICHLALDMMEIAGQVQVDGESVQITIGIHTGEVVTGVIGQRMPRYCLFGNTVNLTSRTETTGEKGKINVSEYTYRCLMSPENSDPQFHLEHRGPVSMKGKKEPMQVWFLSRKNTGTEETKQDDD
# Experiment: sGC cellular activator assay (cGMP, HTRF)
# Assay type: cell-based
# Settings: CHO cells stably expressing human sGC alpha 1/beta 1, preincubated with 40 microM ODQ; cGMP readout; assay run with and without 50% human serum, Table 2 does not say which
# Procedure: The sGC cellular activator assay is performed in the presence and absence of 50% human serum (HS) using Chinese hamster ovary cells that have been stably transfected to express the human soluble guanylate cyclase alpha 1 and beta 1 subunits (sGC). Cells are preincubated with 40 microM 1H-[1,2,4]oxadiazolo[4,3-a]quinoxalin-1-one (ODQ), an sGC inhibitor, for one h in buffer containing 0.1% bovine serum albumin and 3-isobutyl-1-methylxanthine (IBMX). Concentration response curves are prepared for test compounds in DMSO. An intermediate dilution of the compounds is performed in either buffer containing IBMX or type AB HS containing IBMX. Diluted compounds are added to cells and they are incubated at room temperature for thirty min. cGMP is measured using a CisBio homogeneous time resolved fluorescence kit and the EC50 is calculated for each compound.
# Representative compounds of the present invention were tested for activity the above assay. Preferred compounds have an EC50 of <1,000 nM in the above assay and more preferred compounds have an EC50<200 nM.
row,EC50 [µM],Compound
1,0.017,COc1c(C(=O)O)cnn1-c1cccc(-c2cccc(C)c2OCc2ccc3c(c2C)CCN([C@H]2CCCOC2)C3)n1 [Compound 141]
2,0.062,COc1c(C(=O)O)cnn1-c1cccc(-c2cccc(C)c2OCc2ccc3c(c2C)CCN(C[C@H]2COCCO2)C3)n1 [Compound 142]
3,0.16,COc1c(C(=O)O)cnn1-c1cccc(-c2cccc(C)c2OCc2cc3c(cc2C)CN(C2CCOCC2)C3)n1 [Compound 143]
4,0.46,CC(C)Oc1c(C(=O)O)cnn1-c1cccc(-c2ccccc2OCc2ccc3c(c2)CCN(C2CCOCC2)C3)n1 [Compound 144]
5,0.013,COc1c(C(=O)O)cnn1-c1cccc(-c2cccc(C)c2OCc2cc(C)c3c(c2C)CN(C2CCOCC2)C3)n1 [Compound 145]
6,0.023,CCOc1c(C(=O)O)cnn1-c1cccc(-c2cccc(C)c2OCc2ccc3c(c2C)CCN(CC2CCCOC2)C3)n1 (stereo not shown) [Compound 146]
7,0.45,"CCOc1c(C(=O)O)cnn1-c1cccc(-c2cccc(C)c2OCc2ccc3c(c2C)CCN(C(=O)C2CCOCC2)C3)n1 [Compound 147, 5-Ethoxy-1-(6-{3-methyl-2-[5-methyl-2-(tetrahydro-pyran-4-carbonyl)-1,2,3,4-tetrahydro-isoquinolin-6-ylmethoxy]-phenyl}-pyridin-2-yl)-1H-pyrazole-4-carboxylic acid]"
8,0.044,COCCOc1c(C(=O)O)cnn1-c1cccc(-c2cccc(C)c2OCc2ccc3c(c2C)CCN(C2CCCOC2)C3)n1 (stereo not shown) [Compound 149]
9,0.091,COCCOc1c(C(=O)O)cnn1-c1cccc(-c2cccc(C)c2OCc2ccc3c(c2C)CCN(C2CCOC2)C3)n1 (stereo not shown) [Compound 150]
10,0.13,COCCOc1c(C(=O)O)cnn1-c1cccc(-c2cccc(C)c2OCc2ccc3c(c2C)CCN(C2CCOCC2)C3)n1 [Compound 151]
11,0.014,CCOc1c(C(=O)O)cnn1-c1cccc(-c2cccc(C)c2OCc2ccc3c(c2C)CCN(C[C@@H]2CCCOC2)C3)n1 [Compound 152]
12,0.026,CCOc1c(C(=O)O)cnn1-c1cccc(-c2cccc(C)c2OCc2ccc3c(c2C)CCN(C[C@H]2CCCOC2)C3)n1 [Compound 153]
13,0.028,CCOc1c(C(=O)O)cnn1-c1cccc(-c2cccc(C)c2OCc2ccc3c(c2CC)CCN(C2CCOCC2)C3)n1 [Compound 154]
14,0.086,CCOc1c(C(=O)O)cnn1-c1cccc(-c2cccc(C)c2OCc2ccc3c(c2C)CCN(C2COC(C)(C)OC2)C3)n1 [Compound 155]
15,0.025,CCOc1c(C(=O)O)cnn1-c1cccc(-c2cccc(C)c2OCc2cc3c(c(C(F)(F)F)c2)CN(C2CCOCC2)CC3)n1 [Compound 157]
16,0.03,COc1c(C(=O)O)cnn1-c1cccc(-c2cccc(C)c2OCc2cc3c(c(C(F)(F)F)c2)CN(C2CCOCC2)CC3)n1 [Compound 158]
17,0.053,CCOc1c(C(=O)O)cnn1-c1cccc(-c2cccc(C)c2OCc2ccc3c(c2F)CCN(C2CCOCC2)C3)n1 [Compound 159]
18,0.11,COc1c(C(=O)O)cnn1-c1cccc(-c2cccc(C)c2OCc2ccc3c(c2C)CCN(S(C)(=O)=O)C3)n1 [Compound 160]
19,0.014,Cc1cc(COc2c(C)cccc2-c2cccc(-n3ncc(C(=O)O)c3OC(C)C)n2)cc2c1CN(C1CCOCC1)CC2 [Compound 161]

row,EC50 [µM],Compound
1,0.023,CCOc1c(C(=O)O)cnn1-c1cccc(-c2cccc(C)c2OCc2ccc3c(c2C)CCN(C2CCOCC2)CC3)n1 [Compound 162]
2,0.055,CCOc1c(C(=O)O)cnn1-c1cccc(-c2cccc(C)c2OCc2ccc3c(c2C)CCN(CC2CCOC(C)(C)C2)C3)n1 (stereo not shown) [Compound 163]
3,0.032,CCOc1c(C(=O)O)cnn1-c1cccc(-c2cccc(C)c2OCc2ccc3c(c2C)CCN(C2COC2)C3)n1 [Compound 164]
4,0.011,CCOc1c(C(=O)O)cnn1-c1cccc(-c2cccc(C)c2OCc2ccc3c(c2C(F)(F)F)CCN(C2CCOCC2)C3)n1 [Compound 165]
5,0.0066,COc1c(C(=O)O)cnn1-c1cccc(-c2cccc(C)c2OCc2ccc3c(c2C(F)(F)F)CCN(C2CCOCC2)C3)n1 [Compound 166]
6,0.03,"COc1c(C(=O)O)cnn1-c1cccc(-c2cccc(C)c2OCc2ccc3c(c2C)CCN(C2CCOCC2)C3=O)n1 [Compound 167, 5-Methoxy-1-(6-{3-methyl-2-[5-methyl-1-oxo-2-(tetrahydro-pyran-4-yl)-1,2,3,4-tetrahydro-isoquinolin-6-ylmethoxy]-phenyl}-pyridin-2-yl)-1H-pyrazole-4-carboxylic acid]"
7,0.58,CCOc1c(C(=O)O)cnn1-c1cccc(-c2cccc(C)c2OCc2ccc3c(c2C)CCN(CCOCCO)C3)n1 [Compound 168]
8,0.013,CCOc1c(C(=O)O)cnn1-c1cccc(-c2cccc(C)c2OCc2cc(C)c3c(c2)CCN(C2CCOCC2)C3)n1 [Compound 169]
9,0.028,CCOc1c(C(=O)O)cnn1-c1cccc(-c2cccc(C)c2OCc2ccc3c(c2C)CCN(C[C@H]2COCCO2)C3)n1 [Compound 170]
10,0.016,COc1c(C(=O)O)cnn1-c1cccc(-c2cccc(C)c2OCc2cc(C)c3c(c2)CCN(C2CCOCC2)C3)n1 [Compound 171]
11,0.05,CCOc1c(C(=O)O)cnn1-c1cccc(-c2cccc(C)c2OCc2ccc3c(c2C)CCN(CC2CCOCC2)C3)n1 [Compound 172]
12,0.013,CCOc1c(C(=O)O)cnn1-c1cccc(-c2cccc(C)c2OCc2cc(C)c3c(c2)CCN(C2CCCOC2)C3)n1 (stereo not shown) [Compound 173]
13,0.014,CCOc1c(C(=O)O)cnn1-c1cccc(-c2cccc(C)c2OCc2cc(C)c3c(c2)CCN(C2COC2)C3)n1 [Compound 174]
14,0.04,CCOc1c(C(=O)O)cnn1-c1cccc(-c2cccc(C)c2OCc2ccc3c(c2C)CCN(C2COC2)CC3)n1 [Compound 175]
15,0.0097,COc1c(C(=O)O)cnn1-c1cccc(-c2cccc(C)c2OCc2ccc3c(c2C)CCN(C2COC2)CC3)n1 [Compound 176]
16,0.035,COc1c(C(=O)O)cnn1-c1cccc(-c2cccc(C)c2OCc2ccc3c(c2F)CCN(C2COC2)C3)n1 [Compound 177]
17,0.014,COc1c(C(=O)O)cnn1-c1cccc(-c2cccc(C)c2OCc2cc(C)c3c(c2C)CCN(C2COC2)C3)n1 [Compound 178]
18,0.059,CCOc1c(C(=O)O)cnn1-c1cccc(-c2cccc(C)c2OCc2ccc3c(c2C)CCN(C[C@H]2COC(C)(C)O2)C3)n1 [Compound 179]
